Assay results reported in patent publication US20220402917A1, “COMPOUND AS SMALL MOLECULE INHIBITOR PD-1/PD-L1 AND APPLICATION THEREOF” (MEDSHINE DISCOVERY INC., priority 2019, published 2022).

Columns and labels:
PD1/PD-L1 [1] = molecular target: T1, PD1/PD-L1 (Homo sapiens, UniProt Q9NZQ7); experiment: NFAT activity test (TCR Activitor/PD-L1 CHO cells with PD-1/NFAT Reporter-Jurkat cells); type: cell-based; parameters: host or cells: TCR Activitor/PD-L1 CHO cells; PD-1/NFAT Reporter-Jurkat cells; conditions: TCR Activitor/PD-L1 CHO cells + PD-1/NFAT Reporter-Jurkat cells, 5 hours, luciferase
Method in brief: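 TCR activator/PD-L1 CHO cells were pretreated 30 min at 37 °C with compound (20 μM to 0.25 nM, 5-fold steps, 2% DMSO). PD-1/NFAT reporter Jurkat cells were then added for 5 h at 37 °C. NFAT-driven luciferase read by Bright-Glo luminescence, normalised to Min/Max, IC50 from 4-parameter fit.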
Target sequence in this assay (Q9NZQ7 19-290): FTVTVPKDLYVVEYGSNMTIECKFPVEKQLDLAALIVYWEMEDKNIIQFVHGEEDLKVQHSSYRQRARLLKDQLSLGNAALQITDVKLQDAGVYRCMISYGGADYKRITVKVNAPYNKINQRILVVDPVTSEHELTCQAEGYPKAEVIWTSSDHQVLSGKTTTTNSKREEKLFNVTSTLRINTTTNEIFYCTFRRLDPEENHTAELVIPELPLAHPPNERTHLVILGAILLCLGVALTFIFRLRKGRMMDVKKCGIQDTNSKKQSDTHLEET

PD1/PD-L1 [2] = molecular target: T1, PD1/PD-L1; experiment: PD-1/PD-L1 homogeneous time-resolved fluorescence (HTRF) binding experiment; parameters: purchased BPS Biosciences; conditions: HTRF (TR-FRET), PD-L1-biotin, PD1-Eu
Source text: Experimental Example 1: PD-1/PD-L1 Homogenouse Time-Resolved Fluorescence (HTRF) Binding Experiment
When the PD-1 molecule as the donor is very close to the PD-L1 molecule as the acceptor, the donor molecule will transfer the energy to the receptor molecule, which in turn causes the receptor molecule to emit fluorescence. The ability of small molecules to prevent the binding of PD-L1 to PD-1 can be tested by detecting the intensity of fluorescence. A homogeneous time-resolved fluorescence (HTRF) binding experiment is used to detect the ability of the compounds of the present disclosure to inhibit the binding of PD-1/PD-L1.
PD1/PD-L1 TR-FRET detection kit was purchased from BPS Biosciences. Nivo multi-label analyzer (PerkinElmer).
PD1-Eu, Dye-labeled acceptor, PD-L1-biotin and compounds to be tested were diluted with the buffer in the kit. The compounds to be tested were subjected to 5-fold dilution to eight concentration gradients with a row gun. That is, from 40 μM to 0.5 nM, the DMSO concentration was 4%, and a double-well experiment was set up. 5 μL of inhibitor with each concentration gradient were added to the microwell plate, and 5 μL buffer containing 4% DMSO and 5 μL PD-L1-biotin (PD-L1-biotin) (60 nM) were added into well with the maximum signal (Max) and the well with the minimum signal (Min), only 5 μL of buffer was added to the well with the minimum signal (Min), and the incubation was conducted at 25° C. for 20 minutes. After the incubation was completed, 5 μL of diluted PD1-Eu (10 nM) and […] were added to each well. The reaction system was placed at 25° C. for 90 minutes. The TR-FRET signal was read by a multi-label analyzer after the reaction was completed.
Using the equation (sample−Min)/(Max−Min)×100% to convert the raw data into inhibition rate, and the IC50 value can be obtained by curve fitting with four parameters (obtained from log(inhibitor) vs. response—Variable slope mode in GraphPad Prism). Table 1 provides the inhibitory activity of the compounds of the examples of the present disclosure on PD1/PD-L1 binding
Target sequence in this assay (Q9NZQ7 19-239 limits assumed): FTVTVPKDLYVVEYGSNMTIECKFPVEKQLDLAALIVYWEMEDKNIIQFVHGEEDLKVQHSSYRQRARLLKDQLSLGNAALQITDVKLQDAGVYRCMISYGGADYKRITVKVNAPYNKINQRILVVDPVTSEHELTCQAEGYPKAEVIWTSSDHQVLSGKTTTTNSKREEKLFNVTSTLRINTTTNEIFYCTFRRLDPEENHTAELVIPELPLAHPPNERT

[3] = molecular target: T2, PD-L1 in MDA-MR-231 cells (Homo sapiens, UniProt Q9NZQ7); experiment: Effect on expression level of PD-L1 in MDA-MR-231 cells (FACS); type: cell-based; conditions: 24 hours incubation, FACS detection of cell surface PD-L1
T2 construct: endogenous in cells; host or cells: MDA-MB-231
T2 sequence (Q9NZQ7 19-290): as the sequence (Q9NZQ7 19-290) above
Method in brief: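 MDA-MB-231 cells (1×10^5/well) were incubated 24 h at 37 °C with 5-fold serially diluted compounds. Cells were detached with 10 mM EDTA, then stained with anti-human PD-L1 and LIVE/DEAD dye (4 °C, 30 min) and fixed. Surface PD-L1 was measured by flow cytometry.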

- Maximum effect (induction fold) (PD1/PD-L1 [1]): 4.84 induction fold
- IC50 (PD1/PD-L1 [1]; read-out: IC50, inhibitory activity on PD1/PD-L1 binding (NFAT activity test)): 18.4 nM
- IC50 (PD1/PD-L1 [2]): 3.68 nM
- IC50 [3]: 0.22 nM
Compound: Cc1cc(C(=O)Nc2cccc(-c3cccc(Nc4nc(C(F)F)nc5cc(CN6CC[C@@H](O)C6)cnc45)c3C)c2Cl)nc2c1CCN(CC(=O)O)C2 [Compound 23]
